Target: T1, Catechol O-methyltransferase (Rattus norvegicus, UniProt P22734)
T1 sequence (P22734 whole entry): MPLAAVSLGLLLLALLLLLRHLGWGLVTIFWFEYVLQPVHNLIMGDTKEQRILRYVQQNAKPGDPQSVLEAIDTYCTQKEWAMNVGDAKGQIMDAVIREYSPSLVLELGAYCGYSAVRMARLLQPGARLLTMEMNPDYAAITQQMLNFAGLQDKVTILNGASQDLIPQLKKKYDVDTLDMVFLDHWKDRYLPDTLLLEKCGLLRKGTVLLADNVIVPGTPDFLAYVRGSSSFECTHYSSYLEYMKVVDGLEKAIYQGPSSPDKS
Experiment: Radiochemical Assay
Conditions: 37 °C
Experimental: The binding affinity of the inhibitors towards Catechol O-methyltransferase in the presence of Mg2+ ions were determined by using a radiochemical assay.

Row | SMILES | IC50 [nM]
1 | Nc1ncnc2c1ncn2[C@@H]1O[C@H](/C=C/CNC(=O)c2cc([N+](=O)[O-])cc(O)c2O)[C@@H](O)[C@H]1O [Bi-substrate Inhibitor, 1a] | 9
2 | Nc1ncnc2c1ncn2[C@@H]1O[C@H](/C=C/CNC(=O)c2cc(-c3nccs3)cc(O)c2O)[C@@H](O)[C@H]1O [Bi-substrate Inhibitor, 1e] | 27
3 | Cc1ccc(-c2cc(O)c(O)c(C(=O)NC/C=C/[C@H]3O[C@@H](n4cnc5c(N)ncnc54)[C@H](O)[C@@H]3O)c2)cc1 [Bi-substrate Inhibitor, 1c] | 23
4 | Nc1ncnc2c1ncn2[C@@H]1O[C@H](/C=C/CNC(=O)c2cc(Br)cc(O)c2O)[C@@H](O)[C@H]1O [Bi-substrate Inhibitor, 1f] | 28
5 | Nc1ncnc2c1ncn2[C@@H]1O[C@H](/C=C/CNC(=O)c2cc(-c3ccncc3)cc(O)c2O)[C@@H](O)[C@H]1O [Bi-substrate Inhibitor, 1d] | 23
6 | N#Cc1cc(O)c(O)c(C(=O)NC/C=C/[C@H]2O[C@@H](n3cnc4c(N)ncnc43)[C@H](O)[C@@H]2O)c1 [Bi-substrate Inhibitor, 1h] | 29
7 | Nc1ncnc2c1ncn2[C@@H]1O[C@H](/C=C/CNC(=O)c2cc(-c3ccc(F)cc3)cc(O)c2O)[C@@H](O)[C@H]1O [Bi-substrate Inhibitor, 1b] | 21

The remaining lines, values ahead:

Row | IC50 [nM] | SMILES
8 | 608 | Cc1ccc(Cc2cc(O)c(O)c(C(=O)NC/C=C/[C@H]3O[C@@H](n4cnc5c(N)ncnc54)[C@H](O)C3O)c2)cc1 (stereo partly drawn) [Bi-substrate Inhibitor, 1q]
9 | 34 | Cc1ccc(C(=O)c2cc(O)c(O)c(C(=O)NC/C=C/[C@H]3O[C@@H](n4cnc5c(N)ncnc54)[C@H](O)[C@@H]3O)c2)cc1 [Bi-substrate Inhibitor, 1i]
10 | 213 | Cc1ccc(S(=O)(=O)c2cc(O)c(O)c(C(=O)NC/C=C/[C@H]3O[C@@H](n4cnc5c(N)ncnc54)[C@H](O)C3O)c2)cc1 (stereo partly drawn) [Bi-substrate Inhibitor, 1p]
11 | 2000 | CN(C)C(=O)c1cc(O)c(O)c(C(=O)NC/C=C/[C@H]2O[C@@H](n3cnc4c(N)ncnc43)[C@H](O)C2O)c1 (stereo partly drawn) [Bi-substrate Inhibitor, 1s]
12 | 44 | Nc1ncnc2c1ncn2[C@@H]1O[C@H](/C=C/CNC(=O)c2cc(Cl)cc(O)c2O)[C@@H](O)[C@H]1O [Bi-substrate Inhibitor, 1m]
13 | 42 | Nc1ncnc2c1ncn2[C@@H]1O[C@H](/C=C/CNC(=O)c2cc(C(=O)c3ccncc3)cc(O)c2O)[C@@H](O)[C@H]1O [Bi-substrate Inhibitor, 1l]
14 | 83 | Nc1ncnc2c1ncn2[C@@H]1O[C@H](/C=C/CNC(=O)c2cc(C(=O)C3CCCCC3)cc(O)c2O)[C@@H](O)[C@H]1O [Bi-substrate Inhibitor, 1n]
15 | 2600 | Nc1ncnc2c1ncn2[C@@H]1O[C@H](/C=C/CNC(=O)c2cccc(O)c2O)C(O)[C@H]1O (stereo partly drawn) [Bi-substrate Inhibitor, 1t]
16 | 35 | Nc1ncnc2c1ncn2[C@@H]1O[C@H](/C=C/CNC(=O)c2cc(C(F)(F)F)cc(O)c2O)[C@@H](O)[C@H]1O [Bi-substrate Inhibitor, 1j]
17 | 97 | CN(C)C(=O)/C=C/c1cc(O)c(O)c(C(=O)NC/C=C/[C@H]2O[C@@H](n3cnc4c(N)ncnc43)[C@H](O)[C@@H]2O)c1 [Bi-substrate Inhibitor, 1o]
18 | 39 | Nc1ncnc2c1ncn2[C@@H]1O[C@H](/C=C/CNC(=O)c2cc(C(=O)C(F)(F)F)cc(O)c2O)[C@@H](O)[C@H]1O [Bi-substrate Inhibitor, 1k]
